According to the supplement of paper PMC10307832:

Experiments:
Test in all cases: relative viability (nuclei count vs DMSO), 5 days (fraction); higher = more cells survive
BX 795 + Crizotinib = compound: O=C(NCCCNc1nc(Nc2cccc(NC(=O)N3CCCC3)c2)ncc1I)c1cccs1 [BX 795] + C[C@@H](Oc1cc(-c2cnn(C3CCNCC3)c2)cnc1N)c1c(Cl)ccc(F)c1Cl [Crizotinib] (partner 1 µM)
Outline: (§1)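 Medians of duplicate plates are given as relative viability. That measure is the nuclei count in treated wells divided by the count in vehicle wells. Counts were taken on 4× images of lung cancer cell lines in 1536-well plates, 5 days after pin-tool dosing the day after seeding with one drug alone or a fixed anchor-drug dose plus five library-drug doses (not always all listed) in √10 steps.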

BX 795 + AZD7762 = compound: O=C(NCCCNc1nc(Nc2cccc(NC(=O)N3CCCC3)c2)ncc1I)c1cccs1 [BX 795] + NC(=O)Nc1cc(-c2cccc(F)c2)sc1C(=O)N[C@H]1CCCNC1 [AZD7762] (partner 0.2 µM)
Outline: as §1

BX 795 + Tozasertib = compound: O=C(NCCCNc1nc(Nc2cccc(NC(=O)N3CCCC3)c2)ncc1I)c1cccs1 [BX 795] + Cc1cc(Nc2cc(N3CCN(C)CC3)nc(Sc3ccc(NC(=O)C4CC4)cc3)n2)n[nH]1 [Tozasertib] (partner 0.1 µM)
Outline: as §1

BX 795 + Vorinostat = compound: O=C(NCCCNc1nc(Nc2cccc(NC(=O)N3CCCC3)c2)ncc1I)c1cccs1 [BX 795] + O=C(CCCCCCC(=O)Nc1ccccc1)NO [Vorinostat] (partner 1 µM)
Outline: as §1

BX 795 + Linsitinib = compound: O=C(NCCCNc1nc(Nc2cccc(NC(=O)N3CCCC3)c2)ncc1I)c1cccs1 [BX 795] + C[C@]1(O)C[C@@H](c2nc(-c3ccc4ccc(-c5ccccc5)nc4c3)c3c(N)nccn32)C1 [Linsitinib] (partner 1 µM)
Outline: as §1

Cell Line	relative viability (BX 795 + Crizotinib; first compound 0.04 µM)	relative viability (BX 795 + Crizotinib; first compound 0.1265 µM)	relative viability (BX 795 + Crizotinib; first compound 0.4 µM)	relative viability (BX 795 + Crizotinib; first compound 1.265 µM)	relative viability (BX 795 + AZD7762; first compound 0.04 µM)	relative viability (BX 795 + AZD7762; first compound 0.1265 µM)	relative viability (BX 795 + AZD7762; first compound 0.4 µM)	relative viability (BX 795 + AZD7762; first compound 1.265 µM)	relative viability (BX 795 + Tozasertib; first compound 0.04 µM)	relative viability (BX 795 + Tozasertib; first compound 0.1265 µM)	relative viability (BX 795 + Tozasertib; first compound 0.4 µM)	relative viability (BX 795 + Tozasertib; first compound 1.265 µM)	relative viability (BX 795 + Vorinostat; first compound 0.04 µM)	relative viability (BX 795 + Vorinostat; first compound 0.1265 µM)	relative viability (BX 795 + Vorinostat; first compound 0.4 µM)	relative viability (BX 795 + Vorinostat; first compound 1.265 µM)	relative viability (BX 795 + Linsitinib; first compound 0.04 µM)	relative viability (BX 795 + Linsitinib; first compound 0.1265 µM)	relative viability (BX 795 + Linsitinib; first compound 0.4 µM)	relative viability (BX 795 + Linsitinib; first compound 1.265 µM)
NCI-H1666	1.16	1.05	1.13	0.769	0.895	0.784	0.838	0.832	0.642	0.69	0.599	0.403	1.13	0.97	1.22	0.923	0.777	1.07	1.05	0.74
NCI-H1734	0.765	0.727	0.64	0.432	0.54	0.562	0.51	0.444	0.243	0.23	0.238	0.216	0.888	0.773	0.482	0.34	0.915	0.968	0.861	0.761
NCI-H1755	0.935	0.908	0.767	0.516	0.465	0.467	0.374	0.386	0.681	0.481	0.553	0.508	0.738	0.735	0.739	0.761	1.04	0.93	1.01	0.689
NCI-H1915	0.904	0.95	0.85	0.765	0.651	0.658	0.666	0.695	0.473	0.413	0.405	0.241	0.534	0.51	0.525	0.49	1.16	1.09	1.08	1.02
NCI-H1944	1.18	1.03	1.09	0.741	0.531	0.555	0.48	0.531	0.286	0.236	0.302	0.243	0.674	0.637	0.575	0.475	1.25	1.36	1.14	1.1
NCI-H1975	0.99	1.04	0.879	0.643	0.705	0.792	0.67	0.564	0.707	0.794	0.623	0.234	0.761	0.713	0.656	0.399	0.83	1.04	0.977	0.659
NCI-H1993	0.888	0.891	0.795	0.665	0.759	0.795	0.589	0.809	0.582	0.553	0.527	0.55	0.833	0.731	0.577	0.524	0.628	0.732	0.713	0.696
NCI-H2085	0.911	0.841	0.843	0.732	0.895	0.932	0.947	0.957	0.797	0.84	0.771	0.66	0.78	0.809	0.778	0.725	0.883	0.961	1.04	0.737
NCI-H2087	0.745	0.963	0.868	0.516	1.26	1.33	1.32	1.13	0.266	0.293	0.307	0.183	0.762	1.06	0.95	0.587	1.1	0.924	1.06	0.647
NCI-H2126	1.04	0.984	1.09	0.945	1.02	1.01	1.01	0.983	0.85	0.883	0.831	0.758	0.805	0.799	0.913	0.73	0.714	0.656	0.757	0.701
NCI-H2347	0.8	0.616	0.801	0.545	0.806	0.838	0.677	0.578	0.817	0.64	0.603	0.441	0.5	0.633	0.717	0.505	1.09	0.962	1.17	0.942
NCI-H2405	0.806	0.842	0.635	0.794	0.714	0.678	0.664	0.573	0.799	0.715	0.746	0.581	1.01	0.809	0.951	0.821	0.871	0.828	0.678	0.694
NCI-H3122	0.293	0.266	0.282	0.296	1.06	1.07	0.937	1.03	0.387	0.415	0.323	0.356	0.715	1.03	1.11	0.679	0.989	1.02	1.08	1.1
PC-3 [JPC-3]	1.04	0.993	1.06	0.946	0.809	–	0.685	0.802	0.931	0.851	0.881	0.872	0.766	–	0.929	0.809	1.02	1.02	0.979	0.976
PC-14	0.879	0.919	0.851	0.602	0.369	0.383	0.335	0.282	0.619	0.595	0.47	0.427	0.819	0.778	0.424	0.433	0.923	0.917	0.879	0.75
RERF-LC-KJ	0.86	0.767	0.699	0.669	1.16	1.05	1.11	0.86	0.599	0.501	0.445	0.217	–	0.667	0.59	0.541	0.881	0.891	0.94	0.874
